One assay has as its system Macrophage. Briefly: Effect on nitric oxide production in tetrahydrobiopterin depleted mouse bone marrow macrophages at 1 uM after 72 hrs. In kind it is functional.
Assay [1] can be described thus: Effect on nitric oxide production in tetrahydrobiopterin depleted pig pulmonary artery endothelial cells at 30 uM after 72 hrs. In kind it is functional, Sus scrofa, Endothelial cell.
In assay [2] the test system is Aortic ring. Briefly: Relaxation of phenyphrine-induced constriction in rat aortic rings at 0.3 mM relative to control. Format: functional, Aorta. Further details: scale not given: the % may be the effect or the level left.
Assay [3] relates to Aortic ring. Briefly: Relaxation of phenyphrine-induced constriction in rat aortic rings in presence of L-NAME. Format: functional, Aorta. Further details: scale not given: the % may be the effect or the level left.
Assay [4] relates to Aortic ring. Briefly: Relaxation of phenyphrine-induced constriction in rat aortic rings. In kind it is functional, tissue-based. The settings on record: Aorta.
Another assay concerns the target Nitric oxide synthase 1 (Homo sapiens, UniProt P29475). Briefly: Activity of tetrahydrobiopterin free nNOS.

Each structure is given as a SMILES string.

Nitric oxide synthase 1, sequence (P29475 whole entry): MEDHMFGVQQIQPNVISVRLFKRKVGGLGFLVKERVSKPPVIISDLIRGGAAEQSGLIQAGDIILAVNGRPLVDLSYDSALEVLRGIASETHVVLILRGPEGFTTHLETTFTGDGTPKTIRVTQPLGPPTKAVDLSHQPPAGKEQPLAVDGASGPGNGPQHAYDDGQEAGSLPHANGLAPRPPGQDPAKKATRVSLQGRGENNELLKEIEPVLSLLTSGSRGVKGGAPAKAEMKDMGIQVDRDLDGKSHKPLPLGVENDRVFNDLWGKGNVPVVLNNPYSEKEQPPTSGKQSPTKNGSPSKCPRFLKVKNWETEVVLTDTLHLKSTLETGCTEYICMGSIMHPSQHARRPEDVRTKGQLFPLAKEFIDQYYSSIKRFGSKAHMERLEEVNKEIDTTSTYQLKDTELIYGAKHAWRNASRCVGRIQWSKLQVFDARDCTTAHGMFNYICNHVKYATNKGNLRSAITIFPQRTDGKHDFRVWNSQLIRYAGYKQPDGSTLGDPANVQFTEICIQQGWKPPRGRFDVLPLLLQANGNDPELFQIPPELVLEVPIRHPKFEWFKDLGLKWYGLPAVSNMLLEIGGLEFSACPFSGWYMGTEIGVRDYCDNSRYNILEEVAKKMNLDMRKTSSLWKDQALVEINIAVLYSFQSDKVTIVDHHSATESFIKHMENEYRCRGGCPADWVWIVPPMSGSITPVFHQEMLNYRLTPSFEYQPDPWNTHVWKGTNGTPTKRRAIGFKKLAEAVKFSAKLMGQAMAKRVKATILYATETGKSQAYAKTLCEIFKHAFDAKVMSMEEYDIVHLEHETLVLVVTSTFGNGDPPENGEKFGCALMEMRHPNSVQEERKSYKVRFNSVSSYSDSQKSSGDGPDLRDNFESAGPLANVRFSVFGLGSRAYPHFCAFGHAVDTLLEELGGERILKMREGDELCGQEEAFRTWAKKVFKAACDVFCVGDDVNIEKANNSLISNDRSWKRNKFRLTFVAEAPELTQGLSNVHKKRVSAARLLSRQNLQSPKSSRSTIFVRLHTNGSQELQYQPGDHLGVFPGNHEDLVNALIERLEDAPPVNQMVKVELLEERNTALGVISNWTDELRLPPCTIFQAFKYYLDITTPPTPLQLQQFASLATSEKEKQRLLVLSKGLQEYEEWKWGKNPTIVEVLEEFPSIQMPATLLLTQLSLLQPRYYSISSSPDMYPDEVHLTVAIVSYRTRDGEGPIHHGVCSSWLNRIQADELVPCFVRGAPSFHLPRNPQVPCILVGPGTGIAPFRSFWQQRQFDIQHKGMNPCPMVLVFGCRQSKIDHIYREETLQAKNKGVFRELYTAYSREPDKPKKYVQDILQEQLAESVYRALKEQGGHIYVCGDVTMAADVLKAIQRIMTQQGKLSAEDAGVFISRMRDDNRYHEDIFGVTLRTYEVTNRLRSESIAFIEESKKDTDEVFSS

As for `CC(=O)C1=Nc2c(nc(N)[nH]c2=O)NC1(C)C`, the Activity in the assay on Macrophage came to 6.2 µM; in assay [1] it was 11.4 µM; in the assay on Aortic ring [2] it was 24.2%; in the assay on Aortic ring [3], 5.4%. Further, in the assay with Aortic ring [4], the EC50 (in general, the concentration giving half of the maximal effect) turned out to be 10 nM.

Turning to `CC(=O)C1Nc2c(nc(N)[nH]c2=O)NC1(C)C` (configuration not stated), the affinity at Nitric oxide synthase 1, expressed as Kd, was 151000 nM.

On to `C[C@H](O)[C@H](O)[C@H]1CNc2nc(N)[nH]c(=O)c2N1` [SAPROPTERIN], for which binding at Nitric oxide synthase 1 was characterised by a dissociation constant (Kd) of 1120 nM.

The values are drawn from ChEMBL document CHEMBL1143118, “6-Acetyl-7,7-dimethyl-5,6,7,8-tetrahydropterin is an activator of nitric oxide synthases” (Bioorg Med Chem Lett, 2008).
